Laboratory results as given in the supplement of paper PMC10307832.

Compound: COC1=CC=C(C=C1)CN2C=CC3=C2C=C(C=C3)C(=O)NO + CCNC(=O)c1noc(-c2cc(C(C)C)c(O)cc2O)c1-c1ccc(CN2CCOCC2)cc1 [Luminespib] (partner 0.01 µM)
Test: relative viability (nuclei count vs DMSO), 5 days (fraction); higher = more cells survive
Details: first compound 0.08 µM
How it was run: (§1)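 One day after seeding in 1536-well plates, lung cancer cell lines were dosed by pin tool. Dosing was either single-drug or a fixed anchor-drug dose plus five library-drug doses (not always all listed) in √10 steps. After 5 days, nuclei were stained in one fix-and-stain step and counted on 4× images, and relative viability is the nuclei count of treated wells over that of vehicle wells, given as the median of duplicate plates.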

Cell Line	relative viability
LC-2-ad	0.993
SW 900	0.174
NCI-H1651	0.927
COR-L23	0.536
HCC-827	0.537
NCI-H522	1.01
LCLC-103H	0.938
RERF-LC-KJ	1.24
NCI-H3122	0.0872
BEN	0.427
LCLC-97TM1	0.412
NCI-H2085	0.392
NCI-H727	0.345
201T	1.05
LOU-NH91	0.316
NCI-H1666	0.911
NCI-H650	0.816
NCI-H1993	0.57
NCI-H647	0.23
NCI-H2126	0.839
NCI-H1755	0.398
PC-3 [JPC-3]	0.797
NCI-H2087	0.131
NCI-H441	0.27
HOP-62	0.756
NCI-H2170	0.566

Same assay, conditions: first compound 0.253 µM

Cell Line	relative viability
LXF-289	0.732
LC-2-ad	0.82
SW 900	0.234
NCI-H1651	0.885
COR-L23	0.754
HCC-827	0.58
NCI-H522	1.13
LCLC-103H	0.99
RERF-LC-KJ	1.35
NCI-H3122	0.107
BEN	0.286
UMC-11	1.13
LCLC-97TM1	0.797
NCI-H2085	0.413
A-427	1.03
NCI-H727	0.406
NCI-H838	0.315

Cell Line	relative viability
NCI-H1793	0.184
201T	1.13
NCI-H2228	0.193
LOU-NH91	0.345
NCI-H1666	1.07
NCI-H650	0.758
ChaGo-K-1	0.69
NCI-H1993	0.812
NCI-H647	0.216
NCI-H2126	0.967
NCI-H1755	0.312
PC-3 [JPC-3]	0.746
NCI-H2087	0.165
NCI-H441	0.322
HOP-62	0.876
NCI-H2170	0.748

Same assay, conditions: first compound 0.8 µM

Cell Line	relative viability
PC-14	0.184
LXF-289	0.709
LC-2-ad	0.992
SW 900	0.206
NCI-H1651	1.02
COR-L23	0.716
HCC-827	0.461
NCI-H522	1.18
LCLC-103H	0.948
RERF-LC-KJ	1.17
NCI-H3122	0.141
BEN	0.23
UMC-11	0.98
LCLC-97TM1	0.801
NCI-H2085	0.409
A-427	0.956
NCI-H727	0.311

Cell Line	relative viability
NCI-H838	0.364
NCI-H1793	0.17
201T	1.07
NCI-H2228	0.179
LOU-NH91	0.322
NCI-H1666	1.01
NCI-H650	0.774
ChaGo-K-1	0.494
NCI-H1993	1.09
NCI-H647	0.226
NCI-H2126	0.944
NCI-H1755	0.499
PC-3 [JPC-3]	0.655
NCI-H2087	0.193
NCI-H441	0.37
HOP-62	0.939
NCI-H2170	0.549

Same assay, conditions: first compound 2.53 µM

Cell Line	relative viability
PC-14	0.14
LXF-289	0.714
LC-2-ad	1.06
SW 900	0.217
NCI-H1651	0.816
COR-L23	0.747
HCC-827	0.51
NCI-H522	1.06
LCLC-103H	1.03
RERF-LC-KJ	1.26
NCI-H3122	0.0763
BEN	0.354
UMC-11	0.904
LCLC-97TM1	0.803
NCI-H2085	0.447
A-427	0.835
NCI-H727	0.436

Cell Line	relative viability
NCI-H838	0.354
NCI-H1793	0.18
201T	1.05
NCI-H2228	0.142
LOU-NH91	0.341
NCI-H1666	0.987
NCI-H650	0.745
ChaGo-K-1	0.601
NCI-H1993	0.826
NCI-H647	0.185
NCI-H2126	0.917
NCI-H1755	0.508
PC-3 [JPC-3]	0.729
NCI-H2087	0.208
NCI-H441	0.422
HOP-62	0.951
NCI-H2170	0.833

Same assay, conditions: first compound 8 µM

Cell Line	relative viability
PC-14	0.134
LXF-289	0.632
LC-2-ad	0.791
SW 900	0.165
NCI-H1651	0.655
COR-L23	0.603
HCC-827	0.652
NCI-H522	1.22
LCLC-103H	0.883
RERF-LC-KJ	1.08
NCI-H3122	0.0869
BEN	0.218
UMC-11	1.01
LCLC-97TM1	0.724
NCI-H2085	0.471
A-427	0.847
NCI-H727	0.323

Cell Line	relative viability
NCI-H838	0.381
NCI-H1793	0.219
201T	0.987
NCI-H2228	0.13
LOU-NH91	0.359
NCI-H1666	1.15
NCI-H650	0.574
ChaGo-K-1	0.409
NCI-H1993	0.845
NCI-H647	0.111
NCI-H2126	0.881
NCI-H1755	0.356
PC-3 [JPC-3]	0.753
NCI-H2087	0.132
NCI-H441	0.322
HOP-62	0.94
NCI-H2170	0.589

Compound: COC1=CC=C(C=C1)CN2C=CC3=C2C=C(C=C3)C(=O)NO + O=C(CCCCCCC(=O)Nc1ccccc1)NO [Vorinostat] (partner 1 µM)
Test: as above
Details: first compound 0.08 µM
How it was run: as §1

Cell Line	relative viability
PC-14	0.21
